For data set [1], the target named is T1, human calcitonin receptor (hCTR2) (Homo sapiens, UniProt P30988).
T1 construct: expressed in transfected cells
T1 sequence (P30988 25-474): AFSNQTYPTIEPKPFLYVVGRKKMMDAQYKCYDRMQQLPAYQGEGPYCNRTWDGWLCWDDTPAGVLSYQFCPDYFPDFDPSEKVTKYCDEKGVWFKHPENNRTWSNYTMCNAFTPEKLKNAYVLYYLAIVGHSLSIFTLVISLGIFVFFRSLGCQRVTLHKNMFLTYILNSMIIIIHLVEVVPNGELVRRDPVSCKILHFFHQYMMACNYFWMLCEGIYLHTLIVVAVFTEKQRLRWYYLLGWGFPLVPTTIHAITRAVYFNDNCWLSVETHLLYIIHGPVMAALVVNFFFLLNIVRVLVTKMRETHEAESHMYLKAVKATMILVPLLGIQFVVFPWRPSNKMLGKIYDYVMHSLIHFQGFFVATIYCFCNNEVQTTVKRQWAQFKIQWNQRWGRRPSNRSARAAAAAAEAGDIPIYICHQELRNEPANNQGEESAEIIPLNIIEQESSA
The experiment in a line: hCTR2 assay: induction of cAMP (AlphaScreen cAMP Assay kit) in COS7 cells expressing hCTR2. In kind it is cell-based. A digest of the protocol:
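Stable RAMP-naive COS7 clone expressing hCTR2 was stimulated with increasing peptide concentrations in Tyrode buffer (pH 7.4) with 100 µM IBMX and 0.1% casein for 15 min at 37° C. Cells were lysed and cAMP measured by AlphaScreen. EC50 and efficacy relative to pramlintide came from 4PL curve fits.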
In general terms: Bead proximity is the source of the signal in Alpha formats.

The target of data set [2] is T2, human amylin receptor 3 (hAMYR3) consisting of hCTR2 co-expressed with human Receptor Activity Modifying Protein 3 (hRAMP3) (Homo sapiens, UniProt O60896+P30988).
T2 construct: expressed in transfected cells
T2 sequence (P30988 25-474): T1 sequence (P30988 25-474)
T2 sequence (O60896 24-148 partner): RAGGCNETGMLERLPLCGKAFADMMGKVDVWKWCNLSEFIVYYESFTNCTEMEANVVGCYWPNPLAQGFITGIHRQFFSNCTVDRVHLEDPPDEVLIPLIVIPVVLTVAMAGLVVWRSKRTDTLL
The experiment in a line: hAMYR3 assay: induction of cAMP (AlphaScreen cAMP Assay kit) in COS7 cells expressing hAMYR3. It is filed as cell-based. The following applies: cAMP induction in COS7 cells expressing hAMYR3; average of a minimum of 3 determinations; read-out: hAMY R3 EC50. A digest of the protocol:
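Stable COS7 clone co-expressing hCTR2 and hRAMP3, stimulated 15 min at 37° C with increasing peptide in Tyrode buffer pH 7.4 with 100 µM IBMX and 0.1% casein. cAMP measured by AlphaScreen after lysis; EC50 and % efficacy versus pramlintide from 4PL fit.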

Data set [3] can be described thus: Solubility assessment (turbidity absorbance at 325 nm). It is filed as physicochemical. The note with it: stock 2 mg/ml diluted 1:1, ambient temperature (typically 25°C), n=1; for Solubility, Acetate buffer pH 4: 100 mM acetate buffer pH 4.0; for Solubility, Acetate buffer pH 5: 100 mM acetate buffer pH 5.0; for Solubility, Histidine buffer pH 6: 100 mM histidine buffer pH 6.0; for Solubility, Histidine buffer pH 7: 100 mM histidine buffer pH 7.0; for Solubility, Phosphate buffer pH 6: 100 mM phosphate buffer pH 6.0; for Solubility, Phosphate buffer pH 7: 100 mM phosphate buffer pH 7.0; for Solubility, Phosphate buffer pH 7.5: 100 mM phosphate buffer pH7.5. A digest of the protocol:
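Peptide stock (2 mg/ml) in water acidified to pH 2.5 with HCl was diluted 1:1 into 100 mM acetate (pH 4.0, 5.0), histidine (pH 6.0, 7.0) or phosphate (pH 6.0, 7.0, 7.5) buffer. A280 and A325 were read at about 25°C, n=1. A325 ≤ 0.02 meant solubility ≥ 1 mg/ml.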

Broadly, the EC50 is the concentration giving half of the maximal effect.

The structures appear in SMILES notation. Like-named read-outs stand apart in the source and are kept apart here. Numbered stars: 1 amine (or outer) side, 2 acyl side, 3 side chain; on linkers, the order of the positions; unused ones are H or OH. Bridge positions count the residues as written; N and C are the ends. Square brackets hold non-standard residues; d marks the D form. Peptide text beside a SMILES is read from it. * marks the point of attachment. C20 diacid = O=C(O)CCCCCCCCCCCCCCCCCCC(=O)*; γGlu = O=C(O)[C@H](CCC(=O)[*:2])N[*:1]; NMeI = CC[C@H](C)[C@H](NC)C(=O)O; Sar = CNCC(=O)O

For the compound `CC[C@H](C)[C@@H](C(=O)N[C@@H](CC(C)C)C(=O)N[C@@H](CO)C(=O)N[C@@H](CO)C(=O)N[C@H](C(=O)N[C@@H](CCC(=O)O)C(=O)N[C@H](C(=O)NCC(=O)N[C@@H](CO)C(=O)N[C@@H](CCC(=O)O)C(=O)N[C@H](C(=O)N1CCC[C@H]1C(N)=O)[C@@H](C)O)C(C)C)[C@@H](C)O)N(C)C(=O)[C@H](C)NC(=O)CN(C)C(=O)[C@H](Cc1ccccc1)NC(=O)[C@H](CO)NC(=O)[C@H](CO)NC(=O)[C@H](CO)NC(=O)[C@H](CO)NC(=O)[C@H](CCCNC(=N)N)NC(=O)[C@H](Cc1c[nH]cn1)NC(=O)[C@H](CC(C)C)NC(=O)[C@H](Cc1ccccc1)NC(=O)[C@H](CCC(=O)O)NC(=O)[C@H](C)NC(=O)[C@H](CC(C)C)NC(=O)[C@H](CCCNC(=N)N)NC(=O)[C@H](CC(=O)O)NC(=O)[C@@H](NC(=O)[C@H](C)NC(=O)[C@@H]1CSSC[C@H](NC(=O)[C@H](CCCNC(=N)N)NC(=O)CC[C@H](NC(=O)CCCCCCCCCCCCCCCCCCC(=O)O)C(=O)O)C(=O)N[C@@H](CC(=O)O)C(=O)N[C@@H]([C@@H](C)O)C(=O)N[C@@H](C)C(=O)N[C@@H]([C@@H](C)O)C(=O)N1)[C@@H](C)O` [Compound 149, [19CD]-isoGlu-RC()DTATC()ATDRLAEFLHRSSSSF-Gly(Me)-A-Ile(Me)-LSSTEVGSETP-NH2] ({C20 diacid-γGlu}-RCDTATCATDRLAEFLHRSSSSF[Sar]A[NMeI]LSSTEVGSETP-NH2; disulfide 2-7), the EC50 in data set [1] came out at 0.16 nM. For the same compound, in data set [2], the EC50 came out at 0.26 nM. In data set [3], the “Solubility, Acetate buffer pH 4” value was “SS (SS indicates solubility ≥ 1mg/ml)”; the “Solubility, Acetate buffer pH 5” value was “SS (SS indicates solubility ≥ 1mg/ml)”; the “Solubility, Histidine buffer pH 6” value is given as “SS (SS indicates solubility ≥ 1mg/ml)”; the “Solubility, Histidine buffer pH 7” value is “SS (SS indicates solubility ≥ 1mg/ml)”. In data set [3], the “Solubility, Phosphate buffer pH 6” value is on record as “SS (SS indicates solubility ≥ 1mg/ml)”; the “Solubility, Phosphate buffer pH 7” value is “SS (SS indicates solubility ≥ 1mg/ml)”; the “Solubility, Phosphate buffer pH 7.5” value is “SS (SS indicates solubility ≥ 1mg/ml)”.
In the case of `CC[C@H](C)[C@@H](C(=O)N[C@@H](CC(C)C)C(=O)N[C@@H](CO)C(=O)N[C@@H](CO)C(=O)N[C@H](C(=O)N[C@@H](CCC(=O)O)C(=O)N[C@H](C(=O)NCC(=O)N[C@@H](CO)C(=O)N[C@@H](CCC(=O)O)C(=O)N[C@H](C(=O)N1CCC[C@H]1C(N)=O)[C@@H](C)O)C(C)C)[C@@H](C)O)N(C)C(=O)[C@H](C)NC(=O)CN(C)C(=O)[C@H](Cc1ccccc1)NC(=O)[C@H](CO)NC(=O)[C@H](CO)NC(=O)[C@H](CO)NC(=O)[C@H](CO)NC(=O)[C@H](CCCNC(=N)N)NC(=O)[C@H](Cc1c[nH]cn1)NC(=O)[C@H](CC(C)C)NC(=O)[C@H](Cc1ccccc1)NC(=O)[C@H](CCC(=O)O)NC(=O)[C@H](C)NC(=O)[C@H](CC(C)C)NC(=O)[C@H](CCCNC(=N)N)NC(=O)[C@H](CC(=O)O)NC(=O)[C@@H](NC(=O)[C@H](C)NC(=O)[C@@H]1CSSC[C@H](NC(=O)[C@H](CCCNC(=N)N)NC(=O)CC[C@H](NC(=O)CCCCCCCCCCCCCCCCCCC(=O)O)C(=O)O)C(=O)N[C@@H](CCC(=O)O)C(=O)N[C@@H]([C@@H](C)O)C(=O)N[C@@H](C)C(=O)N[C@@H]([C@@H](C)O)C(=O)N1)[C@@H](C)O` [Compound 150, [19CD]-isoGlu-RC()ETATC()ATDRLAEFLHRSSSSF-Gly(Me)-A-Ile(Me)-LSSTEVGSETP-NH2] ({C20 diacid-γGlu}-RCETATCATDRLAEFLHRSSSSF[Sar]A[NMeI]LSSTEVGSETP-NH2; disulfide 2-7), in data set [1], the EC50 amounted to 0.16 nM. In addition, in data set [2], the EC50 was 0.26 nM. In addition, in data set [3], the “Solubility, Acetate buffer pH 4” value was “SS (SS indicates solubility ≥ 1mg/ml)”; the “Solubility, Acetate buffer pH 5” value was “SS (SS indicates solubility ≥ 1mg/ml)”; the “Solubility, Histidine buffer pH 6” value was “SS (SS indicates solubility ≥ 1mg/ml)”; the “Solubility, Histidine buffer pH 7” value is “SS (SS indicates solubility ≥ 1mg/ml)”. For the same compound, in data set [3], the “Solubility, Phosphate buffer pH 6” value is “SS (SS indicates solubility ≥ 1mg/ml)”; the “Solubility, Phosphate buffer pH 7” value was “SS (SS indicates solubility ≥ 1mg/ml)”; the “Solubility, Phosphate buffer pH 7.5” value was “SS (SS indicates solubility ≥ 1mg/ml)”.
Take `CC[C@H](C)[C@@H](C(=O)N[C@@H](CC(C)C)C(=O)N[C@@H](CO)C(=O)N[C@@H](CO)C(=O)N[C@H](C(=O)N[C@@H](CCC(=O)O)C(=O)N[C@H](C(=O)NCC(=O)N[C@@H](CO)C(=O)N[C@@H](CCC(=O)O)C(=O)N[C@H](C(=O)N1CCC[C@H]1C(N)=O)[C@@H](C)O)C(C)C)[C@@H](C)O)N(C)C(=O)[C@H](C)NC(=O)CN(C)C(=O)[C@H](Cc1ccccc1)NC(=O)[C@H](CO)NC(=O)[C@H](CO)NC(=O)[C@H](CO)NC(=O)[C@H](CO)NC(=O)[C@H](CCCNC(=N)N)NC(=O)[C@H](Cc1c[nH]cn1)NC(=O)[C@H](CC(C)C)NC(=O)[C@H](Cc1ccccc1)NC(=O)[C@H](CCC(=O)O)NC(=O)[C@H](C)NC(=O)[C@H](CC(C)C)NC(=O)[C@H](CCCNC(=N)N)NC(=O)[C@H](CC(=O)O)NC(=O)[C@@H](NC(=O)[C@H](C)NC(=O)[C@@H]1CSSC[C@H](NC(=O)[C@H](CCCNC(=N)N)NC(=O)CC[C@H](NC(=O)CCCCCCCCCCCCCCCCCCC(=O)O)C(=O)O)C(=O)N2CCC[C@H]2C(=O)N[C@@H]([C@@H](C)O)C(=O)N[C@@H](C)C(=O)N[C@@H]([C@@H](C)O)C(=O)N1)[C@@H](C)O` [Compound 151, [19CD]-isoGlu-RC()PTATC()ATDRLAEFLHRSSSSF-Gly(Me)-A-Ile(Me)-LSSTEVGSETP-NH2] ({C20 diacid-γGlu}-RCPTATCATDRLAEFLHRSSSSF[Sar]A[NMeI]LSSTEVGSETP-NH2; disulfide 2-7): the EC50 in data set [1] (cAMP induction in COS7 cells expressing hCTR2, average of a minimum of 3 determinations, read-out: hCTR2 EC50) came out at 0.066 nM. In addition, the EC50 in data set [2] is 0.11 nM. Also, in data set [3], the “Solubility, Acetate buffer pH 4” value is “SS (SS indicates solubility ≥ 1mg/ml)”; the “Solubility, Acetate buffer pH 5” value is reported as “SS (SS indicates solubility ≥ 1mg/ml)”; the “Solubility, Histidine buffer pH 6” value is on record as “SS (SS indicates solubility ≥ 1mg/ml)”; the “Solubility, Histidine buffer pH 7” value is listed as “SS (SS indicates solubility ≥ 1mg/ml)”. In data set [3], the “Solubility, Phosphate buffer pH 6” value is given as “SS (SS indicates solubility ≥ 1mg/ml)”; the “Solubility, Phosphate buffer pH 7” value is “SS (SS indicates solubility ≥ 1mg/ml)”; the “Solubility, Phosphate buffer pH 7.5” value is reported as “SS (SS indicates solubility ≥ 1mg/ml)”.

These data come from patent EP3046573B1, “AMYLIN ANALOGUES” (Zealand Pharma A/S, priority 2013, dated 2015).
